Publication PMC10643123, “Integrated chemical and genetic screens unveil FSP1 mechanisms of ferroptosis regulation” (Nature Structural & Molecular Biology, 2023)
pIC50: −log10 of the molar value. Like-named read-outs stand apart in the source and are kept apart here.

Tests used:
hFSP1 (human FSP1) = biological target: T1, hFSP1 (human FSP1) (Homo sapiens, UniProt Q9BRQ8); experiment: resazurin reduction, fluorescence; assay type: biochemical
T1 construct: gene AIFM2; recombinant from E. coli BL21, Ni-NTA purified (His tag implied); HA-tagged in Pfa1 cells for cell assays; cDNA carries C>T:1008 (probably silent)
T1 sequence (Q9BRQ8 2-373): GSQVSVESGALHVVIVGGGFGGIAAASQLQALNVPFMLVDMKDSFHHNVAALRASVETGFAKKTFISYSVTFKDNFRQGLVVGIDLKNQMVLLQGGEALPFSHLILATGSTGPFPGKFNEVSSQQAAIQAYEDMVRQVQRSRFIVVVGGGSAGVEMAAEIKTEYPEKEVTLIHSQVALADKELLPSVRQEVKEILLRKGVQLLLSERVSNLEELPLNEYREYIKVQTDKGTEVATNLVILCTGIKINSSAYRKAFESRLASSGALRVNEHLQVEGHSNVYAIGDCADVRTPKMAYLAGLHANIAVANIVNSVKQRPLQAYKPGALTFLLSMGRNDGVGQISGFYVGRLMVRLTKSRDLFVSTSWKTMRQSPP

mFsp1 (mouse FSP1) = biological target: T2, mFsp1 (mouse FSP1) (Mus musculus, UniProt Q8BUE4); experiment: resazurin reduction, fluorescence; assay type: biochemical
T2 construct: gene Aifm2; recombinant from E. coli BL21, Ni-NTA purified; HA-tagged, codon-optimized in Pfa1 cells for cell assays
T2 sequence (Q8BUE4 2-373): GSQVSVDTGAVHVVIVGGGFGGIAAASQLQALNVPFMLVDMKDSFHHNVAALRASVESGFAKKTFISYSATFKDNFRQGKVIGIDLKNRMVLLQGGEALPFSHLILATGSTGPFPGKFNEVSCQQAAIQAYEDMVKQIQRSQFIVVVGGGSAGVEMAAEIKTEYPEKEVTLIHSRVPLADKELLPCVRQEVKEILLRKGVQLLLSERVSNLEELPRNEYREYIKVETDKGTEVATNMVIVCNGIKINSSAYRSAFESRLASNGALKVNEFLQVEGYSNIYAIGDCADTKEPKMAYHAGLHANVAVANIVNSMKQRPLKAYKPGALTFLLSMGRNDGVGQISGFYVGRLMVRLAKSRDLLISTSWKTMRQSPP
Description: resazurin reduction, fluorescence on mFsp1 (mouse FSP1) | both hFSP1 and mFsp1 enzyme activity are equally sensitive to viFSP1

| SMILES | IC50 (hFSP1 (human FSP1); […] NADH, […] resazurin, TBS, […] C) | pIC50 (mFsp1 (mouse FSP1)) | pIC50 (hFSP1 (human FSP1); read-out: IC50) |
| --- | --- | --- | --- |
| Cc1ccc(-c2c(C#N)c(N)n3c(nc4ccccc43)c2C#N)cc1 [iFSP1] | dose–response curves for the effect of iFSP1 on the activity of FSP1 mutants |  |  |
| COc1ccc(N2CC(=O)C(c3nc(C)cs3)=C2N)c(OC)c1 [viFSP1] |  | 7.08 | 7.47 |
